Experimental data taken from ChEMBL document CHEMBL1201862, “PubChem BioAssay data set” (2004).
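In this assay, cells in 96-well plates receive the compound at five concentrations for 48 hours. Endpoints are linearly interpolated between the surrounding concentrations. Here, GI50 denotes the concentration required for 50% inhibition of growth.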 The source made the active and inactive calls. Rule as the data show it: active = GI50 up to about 1.1 µM and inactive = higher.

Tests used:
Assay in all cases: NCI-60 cell line screen, 48 h
786-0 = test system: 786-0
BT-549 = test system: BT-549
CAKI-1 = test system: CAKI-1
HL-60 = test system: HL-60
HT-29 = test system: HT-29
K562 = test system: K562
KM12 = test system: KM12
LOX IMVI = test system: LOX IMVI
M14 = test system: M14
MDA-MB-231 = test system: MDA-MB-231
MDA-MB-435 = test system: MDA-MB-435
MOLT-4 = test system: MOLT-4
Malme-3M = test system: Malme-3M
NCI/ADR-RES = test system: NCI/ADR-RES
OVCAR-3 = test system: OVCAR-3
SF-268 = test system: SF-268
SF-295 = test system: SF-295
SK-MEL-2 = test system: SK-MEL-2
SK-MEL-5 = test system: SK-MEL-5
SR = test system: SR

Measured: GI50

CC(=O)C(C(c1ccccc1)N1CCOCC1)N1CCOCC1 (stereo not given)
inactive: 786-0 > 100 µM | BT-549 > 100 µM | CAKI-1 > 100 µM | HL-60 > 100 µM | HT-29 > 100 µM | K562 > 100 µM | KM12 > 100 µM | LOX IMVI > 100 µM | M14 > 100 µM | MDA-MB-231 > 100 µM | MDA-MB-435 > 100 µM | MOLT-4 > 100 µM | Malme-3M > 100 µM | NCI/ADR-RES > 100 µM | OVCAR-3 > 100 µM | SF-268 > 100 µM | SF-295 > 100 µM | SK-MEL-2 > 100 µM | SK-MEL-5 > 100 µM | SR 83.9 µM

C1=C(c2ccccc2)NC2=N[C@H]3CCCC[C@@H]3N2C1c1ccccc1 (stereo not given in full)
inactive: 786-0 16.9 µM | BT-549 11.4 µM | CAKI-1 16.1 µM | HL-60 10.3 µM | HT-29 3.51 µM | K562 5.15 µM | KM12 10.1 µM | LOX IMVI 15.3 µM | M14 12.9 µM | MDA-MB-231 15.8 µM | MDA-MB-435 13.6 µM | MOLT-4 7.74 µM | Malme-3M 12.8 µM | NCI/ADR-RES 12 µM | OVCAR-3 13.1 µM | SF-268 21.5 µM | SF-295 13 µM | SK-MEL-2 17.8 µM | SK-MEL-5 14.6 µM | SR 14.2 µM

Fc1c(F)c(C(F)(F)F)c(F)c(F)c1N/N=C/c1cn(Cc2ccccc2)c2ccccc12
inactive: 786-0 23.2 µM | BT-549 30.2 µM | CAKI-1 21.3 µM | HL-60 21.8 µM | HT-29 18.2 µM | K562 31 µM | KM12 20 µM | LOX IMVI 22.8 µM | M14 18.2 µM | MDA-MB-231 21 µM | MDA-MB-435 22.1 µM | MOLT-4 23.3 µM | Malme-3M 30.4 µM | NCI/ADR-RES 24.7 µM | OVCAR-3 13.2 µM | SF-268 43.2 µM | SF-295 13.6 µM | SK-MEL-2 25.6 µM | SK-MEL-5 18.2 µM | SR 22.9 µM

Cc1ccc2c(c1)C(=O)c1[nH]c3ccc(F)cc3c1CO2
inactive: 786-0 12.1 µM | BT-549 31.1 µM | CAKI-1 27.5 µM | HL-60 > 100 µM | HT-29 23.4 µM | K562 29 µM | KM12 > 100 µM | LOX IMVI 21.5 µM | M14 18.8 µM | MDA-MB-231 > 100 µM | MDA-MB-435 58.9 µM | MOLT-4 58.2 µM | Malme-3M 26.3 µM | NCI/ADR-RES 58.5 µM | OVCAR-3 36.6 µM | SF-268 48 µM | SF-295 11.4 µM | SK-MEL-2 12.1 µM | SK-MEL-5 > 100 µM | SR 49.8 µM

C/C=C/C(CC(O)(C(F)(F)F)C(F)(F)F)=N/NC(N)=S
inactive: 786-0 > 10 µM | BT-549 > 10 µM | CAKI-1 > 10 µM | HL-60 > 10 µM | HT-29 > 10 µM | K562 > 10 µM | KM12 > 10 µM | LOX IMVI > 10 µM | M14 > 10 µM | MDA-MB-231 > 10 µM | MDA-MB-435 > 10 µM | MOLT-4 > 10 µM | Malme-3M > 10 µM | NCI/ADR-RES > 10 µM | OVCAR-3 > 10 µM | SF-268 > 10 µM | SF-295 > 10 µM | SK-MEL-2 > 10 µM | SK-MEL-5 > 10 µM | SR > 10 µM

C=C(C)[C@@H](O)[C@H](O)C[C@H](C)C1CC[C@]2(C)C1=CC[C@@H]1[C@@]3(C)CC[C@@H](OC(C)=O)C(C)(C)[C@@H]3C[C@@H](OC3OC(COC(C)=O)C(O)C(O)C3O)[C@]12C (stereo not given in full)
inactive: 786-0 3.44 µM | BT-549 3.33 µM | CAKI-1 3.52 µM | HL-60 2.05 µM | HT-29 2.02 µM | K562 2.02 µM | KM12 1.6 µM | LOX IMVI 1.73 µM | M14 2.72 µM | MDA-MB-231 2.21 µM | MDA-MB-435 2 µM | MOLT-4 2.17 µM | Malme-3M 2.06 µM | NCI/ADR-RES 15 µM | OVCAR-3 2.17 µM | SF-268 2.78 µM | SF-295 2.16 µM | SK-MEL-2 1.77 µM | SK-MEL-5 2.1 µM | SR 1.99 µM

CC1(C)C(CBr)=[N+]([O-])C(C)(C)N1O
inactive: 786-0 5.71 µM | BT-549 2.64 µM | CAKI-1 2.56 µM | HL-60 > 4.6 µM | HT-29 > 8.75 µM | K562 > 4.93 µM | KM12 > 10 µM | LOX IMVI 3.7 µM | M14 2.37 µM | MDA-MB-231 > 6.76 µM | MDA-MB-435 4.03 µM | MOLT-4 2.57 µM | Malme-3M 2.49 µM | NCI/ADR-RES > 7.24 µM | OVCAR-3 3.32 µM | SF-268 9.71 µM | SF-295 > 10 µM | SK-MEL-2 > 9.29 µM | SK-MEL-5 4.16 µM | SR > 3.74 µM
